In US6538022B1, “Compounds for deactivating phospholamban function on Ca-ATPase (phopholamban inhibitors)” (Orion Corporation, priority 1997, dated 2003):
pEC50: −log10 of the molar value. Bridges are numbered along the chain shown (N, C = ends). Where no end group is shown, it is not given here.

Experiments:
guinea-pig heart = assay: Left ventricular systolic pressure in isolated Langendorff-perfused heart; details: Cavia porcellus; for Emax at 30 µM / Emax at 10 µM: read-out: maximum effect (% change from baseline) on left ventricular systolic pressure; for pEC50: concentration range 0.3-30 μM
Description: Experiment 2. The effects on the left ventricular pressure derivatives
Guinea-pigs of either sex weighing 300-400 g were used in the study. After the guinea-pig was sacrificed by a blow on the skull and decapitated the heart was rapidly excised. The heart was then rinsed in cold oxygenated perfusion buffer. A cannula was inserted into the aorta and secured with a ligature. Retrograde perfusion began as soon as the heart was placed in a thermostatically controlled moist chamber of the Langendorff apparatus. Modified Tyrode solution (37° C.), equilibrated in a thermostatically controlled bulb oxygenator with carbogen (95% O2 and 5% CO2) was used as a perfusion buffer. The composition of the Tyrode solution was (in mM): NaCl 135; MgCl2×6H2O 1; KCl 5; CaCl2×2H2O 2; NaHCO3 15; Na2HPO4×2H2O 1; glucose 10; pH 7.3-7.4. The experiments were carried out under constant pressure condition (50 mmHg). After a short prestabilization (10 min) a latex balloon (size 4) was carefully placed into the left ventricle through the left pulmonary vein and the left atrium. The latex balloon was attached to a stainless-steel cannula coupled with a pressure transducer. The latex balloon, the cannula and the chamber of the pressure transducer were filled with ethylene glycol/water (1:1) mixture avoiding any air-bubble. The isovolumetric left ventricular pressure was recorded through the pressure transducer. At the beginning of the experiment, the volume of the balloon was adjusted to obtain a diastolic pressure of approximately 5 mmHg. Before starting the experiment, the heart was allowed to stabilise further for 30-50 min with vehicle (0.1% DMSO) in the perfusion buffer.
After 15 min baseline recording various concentrations of the test compound were added to the perfusion buffer at 15 min intervals. The concentration range of 0.3-30 μM was tested. The vehicle concentration (0.1% DMSO) was kept constant throughout the experiment.

phospholamban = assay: Ca2+ uptake into SR vesicles prepared from cardiac tissue (fluo-3); format: biochemical, guinea pig; details: 0.1 μM free calcium
Description: (§1) Experiment 1. Effect on calcium uptake into the SR vesicles prepared from cardiac and fast skeletal muscle
(§2) Since phospholamban represses both the rates of relaxation and contraction in the mammalian heart through its inhibitory effects on the cardiac SR Ca^2+-ATPase, a compound relieving these effects is potentially useful in the treatment of heart failure.
(§3) Guinea pigs (10-12) were decapited. Their hearts or the psoas muscles were excised, washed in ice-cold 0.9% NaCl and cut into pieces in a buffer containing 20 mM Tris-maleate, 0.3 M sucrose, pH 7.0. Thereafter tissue pieces were homogenized with Polytron and further with Potter (10 strokes). The homogenate was centrifugated at 1000 g for 15 min at 4° C. The supernatant was collected and the pellet was resuspended into 5 ml of the buffer (20 mM Tris-maleate, 0.3 M sucrose, pH 7.0) and recentrifugated at 1000 g for 10 min at 4° C. The obtained supernatant was combined with the earlier collected supernatant and centrifugated once again at 10000 g for 20 min at 4° C. The final supernatant was filtered into a bottle equipped with a magnetic stirrer. KCl was added to the filtered supernatant to achieve the final concentration of 0.6 M (at 4° C.). The obtained solution was centrifugated at 100 000 g for 60 min at 4° C. The pellet was suspended in 5 ml of the buffer containing 20 mM Tris-maleate, 0.3 M sucrose, pH 7.0 and centrifugated at 100 000 g for 60 min at 4° C. The obtained pellet was suspended in 5 ml of buffer containing 20 mM Tris-maleate, 0.3 M sucrose, 0.1 M KCl, pH 7.0 and stored at −80° C. until use. The protein concentration was also measured in order to standardise the separately prepared vesicle preparations.
(§4) In the calcium uptake assay, the fluorescent indicator, fluo-3 was used to detect the decrease of the extravesicular Ca^2+-concentration, when the SR Ca^2+ATPase was transferring Ca^2+ from the extravesicular space into the SR-vesicles.
(§5) The SR-vesicles obtained above (50 μg protein/ml) were pre-incubated with or without the test compound at 37° C. for 5 min in the assay buffer containing 40 mM imidazole, 95 mM KCl, 5 mM NaN3, 5 mM MgCl2, 0.5 mM EGTA, 5 mM potassium oxalate, 2 μM ruthenium red, 5 μM fluo-3, pH 7.0. The free calcium was adjusted to 0.1 μM or to 0.04 μM by CaCl2. The reaction was initiated by adding ATP (5 mM). The final reaction volume was 1.5 ml. The fluorescence of reaction mixture was measured for 3 min by using the excitation and emission wavelengths of 510 nm and 530 nm, respectively.

SR Ca^2+-ATPase = assay: Ca2+ uptake into SR vesicles prepared from fast skeletal muscle (psoas m.), which lack phospholamban (fluo-3); format: biochemical, guinea pig; details: 0.04 μM free calcium
Description: as §1, §2, §3, §4, §5

PLB = molecular target: T1, PLB (Homo sapiens, UniProt P26678); assay: Peptide screen for binding to PLB
T1 sequence (P26678 1-52): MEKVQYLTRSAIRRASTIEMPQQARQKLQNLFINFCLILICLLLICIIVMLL
Description: In order to find a lead molecule which would interact with PLB a series of peptides were screened. […] It was concluded that the cyclic peptide of formula (pI) binds to unphosphorylated PLB and prevents the inhibition exerted by PLB on SERCA—2 thus acting as a PLB deactivator. The cyclic peptide (pI) has the structure: [drawing 1]

pEC50 (guinea-pig heart) | Compound | Emax at 30 µM (guinea-pig heart) [%] | The stimulation (%) of Ca^2+ uptake, A (ventricular myocardium vesicles) (phospholamban; 100 μM compound) [%] | Emax at 10 µM (guinea-pig heart) [%] | also measured
5.05 | Cc1c(Cc2ccccc2)c(=O)oc2cc(OCc3nn[nH]n3)cc(OCc3nn[nH]n3)c12 [Example 1c, 3-Benzyl-5,7-bis[(1H-tetrazol-5-yl)methoxy]-4-methyl-2H-1-benzopyran-2-one] | 52 |  |  | 
5.40 | Cc1c(Cc2ccccc2)c(=O)oc2cc(OCc3noc(=O)[nH]3)cc(OCc3noc(=O)[nH]3)c12 [Example 3c, 3-Benzyl-5,7-bis[(2,5-dihydro-5-oxo-4H-1,2,4-oxadiazol-3-yl)-methoxy]-4-methyl-2H-1-benzopyran-2-one] |  |  | 63 | The stimulation (%) of Ca^2+ uptake, A (ventricular myocardium vesicles) (phospholamban; 20 μM compound): 51%; The stimulation (%) of Ca^2+ uptake, B (fast skeletal muscle vesicles) (SR Ca^2+-ATPase; 20 μM compound): 0%
6.30 | O=c1oc2cc(OCc3nn[nH]n3)cc(OCc3nn[nH]n3)c2c2c1CC(c1ccccc1)CC2 (centres unmarked) [Example 6c, 7,8,9,10-Tetrahydro-1,3-bis[(1H-tetrazol-5-yl)methoxy]-8-phenyl-6H-dibenzo[b,d]pyran-6-one] |  |  | 25 | 
5.60 | Cc1c(CCc2ccccc2)c(=O)oc2cc(OCc3nn[nH]n3)cc(OCc3nn[nH]n3)c12 [Example 7c, 5,7-Bis[(1H-tetrazol-5-yl)methoxy]-4-methyl-3-(2-phenylethyl)-2H-1benzopyran-2-one] |  | 5 | 29 | The stimulation (%) of Ca^2+ uptake, B (fast skeletal muscle vesicles) (SR Ca^2+-ATPase; 100 μM compound): −17%
5.70 | Cc1c(Cc2ccccc2)c(=O)n(Cc2ccccc2)c2cc(OCc3nnn[nH]3)cc(OCc3nn[nH]n3)c12 [Example 8g, 5,7-Bis[(1H-tetrazol-5-yl)methoxy]-1,3-dibenzyl-4-methyl-2(1H)-quinolinone] |  |  | 64 | The stimulation (%) of Ca^2+ uptake, A (ventricular myocardium vesicles) (phospholamban; 10 μM compound): 18%; The stimulation (%) of Ca^2+ uptake, B (fast skeletal muscle vesicles) (SR Ca^2+-ATPase; 10 μM compound): 0%
5.30 | Cc1c(Cc2ccccc2)c(=O)n(C)c2cc(OCc3nnn[nH]3)cc(OCc3nn[nH]n3)c12 [Example 9d, 5,7-Bis[(1H-tetrazol-5-yl)methoxy]-3-benzyl-1,4-dimethyl-2(1H)-quinolinone] | 50 |  |  | 
5.00 | Cc1c(Cc2ccccc2)c(=O)n(Cc2ccc(F)cc2)c2cc(OCc3nn[nH]n3)cc(OCc3nn[nH]n3)c12 [Example 13d, 3-Benzyl-5,7-Bis[(1H-tetrazol-5-yl)methoxy]-1-(4-fluorobenzyl)-4-methyl-2(1H)-quinolinone] | 48 |  |  | The stimulation (%) of Ca^2+ uptake, A (ventricular myocardium vesicles) (phospholamban; 50 μM compound): 23%
5.52 | Cc1c(Cc2ccc([N+](=O)[O-])cc2)c(=O)oc2cc(OCc3nn[nH]n3)cc(OCc3nn[nH]n3)c12 [Example 15c, 5,7-Bis[(1H-tetrazol-5-yl)methoxy]-3-(4-nitrobenzyl)-4-methyl-2H-1-benzopyran-2-one] |  |  | 37 | 
5.00 | Cc1c(C2CCCC2)c(=O)oc2cc(OCc3nn[nH]n3)cc(OCc3nn[nH]n3)c12 [Example 16c, 5,7-Bis[(1H-tetrazol-5-yl)methoxy]-3-cyclopentyl-4-methyl-2H-1-benzopyran-2-one] | 57 |  |  | 
5.22 | Cc1c(Cc2ccccc2F)c(=O)n(Cc2ccccc2)c2cc(OCc3nnn[nH]3)cc(OCc3nnn[nH]3)c12 [Example 19e] | 39 |  |  | 

Second part, the compound before the results:

Compound | pEC50 (guinea-pig heart) | Emax at 30 µM (guinea-pig heart) [%] | The stimulation (%) of Ca^2+ uptake, A (ventricular myocardium vesicles) (phospholamban; 100 μM compound) [%] | Emax at 10 µM (guinea-pig heart) [%] | also measured
O=c1oc2cc(OCc3nn[nH]n3)cc(OCc3nn[nH]n3)c2c2c1C(c1ccccc1)CCC2 (centres unmarked) [Example 2c, 7,8,9,10-Tetrahydro-1,3-bis[(1H-tetrazol-5-yl)methoxy]-7-phenyl-6H-dibenzo[b,d]pyran-6-one] |  |  | 26 |  | The stimulation (%) of Ca^2+ uptake, B (fast skeletal muscle vesicles) (SR Ca^2+-ATPase; 100 μM compound): −1%
O=c1cc(-c2ccccc2)c2c(OCc3nn[nH]n3)cc(OCc3nn[nH]n3)cc2o1 [Example 5c, 5,7-Bis[(1H-tetrazol-5-yl)methoxy]-4-phenyl-2H-1-benzopyran-2-one] |  | 14 |  |  | 
Cc1c(Cc2ccccc2)c(=O)oc2cc(OC(C)c3nn[nH]n3)cc(OC(C)c3nn[nH]n3)c12 (centres unmarked) [Example 11b, 3-Benzyl-5,7-bis[1-(1H-tetrazol-5-yl)ethoxy]4-methyl-2 H-1-benzopyran-2-one] |  |  | 28 |  | 
Cc1c(Cc2ccccc2)c(=O)n(Cc2ccccc2)c2cc(OCC(=O)O)cc(OCC(=O)O)c12 [Example 12, 5,7-Bis(carboxymethoxy)-1,3-dibenzyl-4-methyl-2(1H)-quinolinone] |  |  | 32 | 22 | 
Cc1c(Cc2ccc(Cl)cc2)c(=O)oc2cc(OCc3nn[nH]n3)cc(OCc3nn[nH]n3)c12 [Example 14c, 5,7-Bis[(1H-tetrazol-5-yl)methoxy]-3-(4-chlorobenzyl)-4-methyl-2H-1-benzopyran-2-one] |  |  |  | 25 | The stimulation (%) of Ca^2+ uptake, A (ventricular myocardium vesicles) (phospholamban; 10 μM compound): 18%
Cc1cc(=O)n(Cc2ccccc2)c2cc(OCc3nnn[nH]3)cc(OCc3nnn[nH]3)c12 [Example 18e, 1-Benzyl-5,7-bis-[(1H-tetrazol-5-yl)methoxy]-4-methyl-2(1H)-quinolinone] | 5.00 | 35 | 13 |  | 
Cc1c(Cc2ccccc2)c(=O)n(Cc2ccccc2)c2cc(OCC(N)=O)cc(OCC(N)=O)c12 [Example 21, 5,7-Bis(aminocarbonylmethoxy)-1,3-dibenzyl-4-methyl-2(1H)-quinolinone] |  |  | 11 |  | 
Cc1c(Cc2ccccc2)c(=O)n(Cc2ccccc2)c2cc(OCC(=O)NO)cc(OCC(=O)NO)c12 [Example 23, 5,7-Bis(hydroxyaminocarbonylmethoxy)-1,3-dibenzyl-4-methyl-2(1H)-quinolinone] |  |  |  |  | The stimulation (%) of Ca^2+ uptake, A (ventricular myocardium vesicles) (phospholamban; 5 μM compound): 20%
cP226: cyclic peptide of formula (pI) wherein X is Tyr; linear CYWELEWLPCA cyclized by intramolecular disulphide bridge; PLB deactivator (disulfide 1-10 (inferred)) |  |  |  |  | binding to PLB (PLB): binds to the ligand binding site of phospholamban
